Assay results as given in patent US20240270753A1, “HETEROCYCLIC COMPOUND FOR INHIBITING SHP2 ACTIVITY, PREPARATION METHOD THEREFOR AND USE THEREOF” (SHANGHAI INSTITUTE OF MATERIA MEDICA, CHINESE ACADEMY OF …, priority 2021, published 2024).

Tests used:
MV4-11 cells = assay: MV4-11 cell proliferation inhibition assay (MTS); format: cell-based; details: MTS read on the third day
Method: (a) SHP099 and TNO155 were used as positive controls.
(b) MV4-11 cells (10,000 cells/well) were seeded in a 96-well culture plate with 100 μL/well of the culture medium (IMDM supplemented with 10% fetal bovine serum (FBS), from Gibco company), and cultured for 6 hours. The compounds formulated in different concentrations of the present invention were added. On the third day, 20 μL of MTS reagent (purchased from Promega Company) was added to each well, and the absorbance value was detected according to the reagent instructions (Promega Company). The IC50 of the inhibitory activity of the compounds of the present invention against the MV4-11 cell proliferation is shown in Table 2.

[1] = tested on: p-ERK 1/2 (Thr202/Tyr204) in MIAPaca-2 cells; assay: Cell protein kinase (p-ERK) phosphorylation inhibition, AlphaLISA; format: cell-based; details: treated for 2 hours
Method: The inhibition of the phosphorylation level of intracellular protein kinase (ERK) by a compound was detected by AlphaLISA method. The first step was to treat the cells with the compound. The compound to be tested was first diluted 5-fold with 100% DMSO, and a gradient including a total of 9 different concentrations was set; then MIAPaca-2 cells were inoculated into a 96-well plate at a density of 40,000 cells per well, with a volume of 80 μL per well; then 20 μL of DMSO or the compound to be tested with different concentrations was added to each well, with 2 replicates for each concentration, and the final concentration of DMSO was controlled at 0.5%. The second step was to lyse the cells. After the cells were treated for 2 hours, the culture medium was removed, and the cells were washed three times with a HBSS solution. 50 μL of a freshly prepared lysis buffer was added to each well, shaken, and left at room temperature for 10 minutes. […] 10 μL of the above lysate was put into a 384-well plate (Perkin Elmer, 6005350), and the phosphorylation level of the extracellular signal-regulated kinase in the sample was detected according to the manufacturer's instructions. Signals were read using the AlphaScreen detector on an Envision multifunctional microplate reader (PerkinElmer). The inhibition (%) was calculated by the following equation: […]

SMILES | IC50 (MV4-11 cells) [nM] | IC50 [1] [nM]
CC1(N)CCN(c2cnc(-c3cccc(Cl)c3Cl)c(N)n2)CC1 [SHP099] | 883 ± 105 | 
C[C@@H]1OCC2(CCN(c3cnc(Sc4ccnc(N)c4Cl)c(N)n3)CC2)[C@@H]1N [TNO155] | 118 ± 5.8 | 30
